Where two headings read alike, the source gives them in different places.
Tests used:
M. tuberculosis RR [1] = molecular target: T1, M. tuberculosis RR (Mycobacterium tuberculosis, UniProt P9WH71); settings: Yang et al., 1997; read-out: IC50, RR inhibition; cited from earlier work
P. aeruginosa biofilm = assay: Biofilm formation of GFP-labeled P. aeruginosa in continuous culture flow cells; format: cell-based
[2] = system: M. tuberculosis within human monocyte-derived macrophages (MDM); format: cell-based
Erdman M. tuberculosis [3] = assay: 59Fe acquisition by M. tuberculosis in 7H9 medium; format: cell-based; settings: 500 nM 59Fe-citrate, 6 h
Description: FIGS. 4A-4B. […] Erdman M. tuberculosis (2×10^7 ml) was incubated for 6 h in 7H9 medium (without added Fe and OADC) with 500 nM ^59Fe-citrate (FIG. 4A) or ^67Ga-citrate (FIG. 4B) in the absence or presence of the indicated concentrations of cold competing metal. The bacteria were then washed repeatedly, and bacterium-associated ^67Ga or ^59Fe levels were determined. Results are shown as the amount of metal acquired as a function of increasing concentrations of the cold competing metal. Experimental groups were performed in triplicate, and the data shown represent three independent experiments (mean±SEM).

IdeR = IdeR (Mycobacterium tuberculosis, UniProt P9WMH1); assay: IdeR DNA binding, gel mobility shift assay with HisE promoter region; parameters: species or system M. tuberculosis; settings: for IdeR binding to HisE promoter DNA fragment: 200 μM
Source text: The iron regulatory element, IdeR, regulates the production of catalase, SOD, and siderophores in mycobacteria (Dussurget et al., 1996) in a manner analogous to P. aeruginosa Fur. In order for DNA binding to occur, IdeR must be complexed with a divalent metal such as Fe^2+ or Ni^2+. The effect of Ga(NO3)3 on the binding (gel mobility shift assay) of IdeR was examined using the HisE promoter region from M. tuberculosis that contains a high affinity IdeR binding site (Schmitt et al., 1995). […] A similar lack of binding of Ga^3+ to P. aeruginosa Fur is expected based on these findings.

[4] = human, in vivo; read-out: peak levels achieved clinically; cited from earlier work
established biofilms = assay: Killing of established three-day-old biofilms, viability by propidium iodide; format: cell-based, P. aeruginosa; settings: 10 μM, 100 μM, 1000 μM; 12, 24, 48, 72 hours
Description: FIGS. 10A-10D. Gallium kills established biofilms. Three-day-old biofilms were exposed to gallium in concentrations of 10 μM, 100 μM, and 1000 μM. Biofilm viability was assessed with propidium iodide, and observations were recorded at 12 hours (FIG. 10A), 24 hours (FIG. 10B), 48 hours (FIG. 10C), and 72 hours (FIG. 10D).
Three-day-old biofilms were exposed to gallium in concentrations of 10 μM, 100 μM, and 1000 μM. The biofilm viability was assessed with propidium iodide, and observations were recorded at 12 hours (FIG. 10A), 24 hours (FIG. 10B), 48 hours (FIG. 10C), and 72 hours (FIG. 10D).

[5] = system: P. aeruginosa strain PA01; assay: P. aeruginosa growth in iron-supplemented succinate media (A600); format: cell-based; settings: 100 nM gallium
Description: FIG. 7. P. aeruginosa was inoculated to an OD (A600) of about 0.010 into succinate media alone or with FeCl3 supplementation +/− the Ga chelates.
P. aeruginosa growth is dependent on the addition of exogenous Fe (FIG. 7). […] When gallium, either in the form of Ga(NO3)3 or Ga-TF, was added to iron-supplemented succinate media at concentrations ≧1 μM, a gallium concentration-dependent inhibition of P. aeruginosa growth was observed (FIG. 7). […] Similar results were observed under different conditions (see below).

M. tuberculosis RR [6] = molecular target: T1, M. tuberculosis RR; assay: Radiolabeled CDP reduction assay for ribonucleotide reductase activity; format: biochemical; settings: n=2; read-out: concentration that inhibited RR activity by 50%
P. aeruginosa [7] = settings: cited from earlier work
Erdman M. tuberculosis [8] = format: cell-based; settings: liquid media
[9] = system: intraphagosomal M. tuberculosis; assay: 59Fe acquisition by M. tuberculosis within macrophage phagosomes; format: cell-based; settings: 10 μM Ga(NO3)3; 59Fe transferrin
Description: FIG. 6. Ga-transferrin inhibits Fe acquisition by M. tuberculosis within macrophage phagosomes in a concentration-dependent manner. ^59Fe transferrin (10 μM) was added to M. tuberculosis-containing MDMs in the absence (control) or the presence of the indicated concentrations of Ga-transferrin for 24 h MDMs were lysed, and the lysates were filtered through a 0.22-μm (pore-size) filter. M. tuberculosis-associated radioactivity (expressed in cpm) on the filter was determined. Shown are the cpm values as a function of the Ga concentration added from a representative experiment.
Fe-TF is the major form of extracellular Fe, and transport of exogenously added TF to the M. tuberculosis-containing phagosome of human macrophages (Clemens et al., 1996) has been observed. It was therefore hypothesized that gallium competes with Fe uptake by bacteria dividing within the phagosome. […] This was not due to differences in total MDM ^59Fe.
In two recent preliminary experiments, MDM monolayers were preloaded with either ^59Fe or ^67Ga or both (pulse/chase, 24 h each). Erdman M. tuberculosis was then added. After 48 h, bacteria isolated from the phagosome were assessed for associated iron or gallium. Each metal could be found specifically associated with the bacteria.

[10] = patients with cancer-related hypercalcemia; cited from earlier work
P. aeruginosa [11] = assay: P. aeruginosa growth in 1:100 strength TSB medium (A600); settings: batch culture
Description: Effect of gallium on the growth of P. aeruginosa. Bacteria were inoculated in 1:100 strength TSB medium with the indicated concentrations of gallium and grown at 37° C. with shaking. Growth was monitored as the change in A600 over 15 h.

Chain of IdeR (P9WMH1 whole entry, the tested form may be a part): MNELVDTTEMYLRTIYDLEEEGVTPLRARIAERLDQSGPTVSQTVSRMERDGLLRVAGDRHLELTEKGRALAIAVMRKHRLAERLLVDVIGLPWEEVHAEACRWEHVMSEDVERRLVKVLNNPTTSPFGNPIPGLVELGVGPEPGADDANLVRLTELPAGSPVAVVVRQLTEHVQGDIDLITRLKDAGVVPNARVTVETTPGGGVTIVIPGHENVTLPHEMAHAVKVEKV
T1 sequence (P9WH71 whole entry): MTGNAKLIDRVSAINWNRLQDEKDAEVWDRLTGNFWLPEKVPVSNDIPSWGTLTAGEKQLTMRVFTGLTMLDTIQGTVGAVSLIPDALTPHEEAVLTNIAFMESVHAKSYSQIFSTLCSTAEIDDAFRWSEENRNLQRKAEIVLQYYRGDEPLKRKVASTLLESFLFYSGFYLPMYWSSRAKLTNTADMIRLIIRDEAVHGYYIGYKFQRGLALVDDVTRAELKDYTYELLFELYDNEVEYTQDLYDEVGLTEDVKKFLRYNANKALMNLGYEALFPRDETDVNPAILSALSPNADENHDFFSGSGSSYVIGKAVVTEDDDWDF

NC(=O)NO [hydroxyurea]
IC50 (M. tuberculosis RR [1]): 3000 to 5000 µM

CC(C)(O/N=C(\C(=O)N[C@@H]1C(=O)N2C(C(=O)[O-])=C(C[n+]3ccccc3)CS[C@H]12)c1csc(N)n1)C(=O)O [ceftazidime, reference compound]
effect on P. aeruginosa biofilm development (P. aeruginosa biofilm; sub-inhibitory concentration, 0.25 μg/ml): did not inhibit biofilm development

O=[N+]([O-])[O-].[Na+] [NaNO3, reference compound]
effect on mycobacterial growth within macrophages ([2]; nitrate control): no effect

[Ga+3] [gallium]
competition for M. tuberculosis acquisition of 59Fe (Erdman M. tuberculosis [3]): highly effective in competing | interference with Ni2+ or Fe2+ activation of IdeR binding (IdeR): did not interfere | IdeR binding to HisE promoter DNA fragment (IdeR): did not lead to IdeR binding | bactericidal activity for M. tuberculosis ([2]; extracellularly and even more so intracellularly in macrophages): bactericidal | Cmax [4]: 140 to 700 µM | killing of established biofilms (established biofilms): kills established biofilms in a time and concentration dependent manner | effect on P. aeruginosa growth [5]: did not inhibit growth | IC50 (M. tuberculosis RR [6]): 450 µM

NC[C@H]1O[C@H](O[C@H]2[C@H](O)[C@@H](O[C@H]3O[C@H](CO)[C@@H](O)[C@H](N)[C@H]3O)[C@H](N)C[C@@H]2N)[C@H](N)C[C@@H]1O [tobramycin]
reduction of biofilm cell counts (P. aeruginosa [7]; levels far in excess of the MIC, biofilm cells): approximately 2 logs | decrease in planktonic cells (P. aeruginosa [7]; same dosage, planktonic cells): > 8 log

Ga-TF: gallium chelated by serum transferrin (TF)
inhibiting mycobacterial growth compared with Ga(NO3)3 ([2]; within human macrophages): as effective as Ga(NO3)3 | inhibiting mycobacterial growth compared with Ga(NO3)3 (Erdman M. tuberculosis [8]): as effective as Ga(NO3)3

O=[N+]([O-])[O-].O=[N+]([O-])[O-].O=[N+]([O-])[O-].[Ga+3] [Ga(NO3)3, gallium nitrate]
59Fe acquisition by intraphagosomal M. tuberculosis [9]: markedly decreased | tolerability [10]: well tolerated | effect on P. aeruginosa biofilm formation (P. aeruginosa biofilm; 0.3 μM Ga(NO3)3 (sub-inhibitory), up to 4 days): subsequent steps in biofilm formation were inhibited | concentration above which growth rate of P. aeruginosa significantly decreased (P. aeruginosa [11]): exceeded 1 μM

[Ni+2] [Ni^2+, reference compound]
IdeR binding to HisE promoter DNA fragment (IdeR): binding was observed

— patent publication US9539367B2, “Gallium inhibits biofilm formation” (priority 2003, dated 2017)
